From US20180012623A1, “Ionic Liquid, Lubricant, and Magnetic Recording Medium” (Dexerials Corporation, priority 2016, published 2018)
Where two headings read alike, the source gives them in different places.

What was measured:
[1] = Solubility test of ionic liquids in Vertrel XF and n-hexane (visual observation)
Protocol: To a predetermined amount of Vertrel XF or n-hexane, the ionic liquid was added. Ultrasonic waves were applied to the resultant mixture for 5 minutes, followed by leaving the mixture to stand for 1 day. The solubility was visually observed.
After applying ultrasonic waves to the resultant for 5 minutes, the resultant was left to stand for 1 day. Thereafter, the solubility was visually observed and evaluated based on the following evaluation criteria. […] Similarly, after applying ultrasonic waves to the resultant for 5 minutes, the resultant was left to stand for 1 day. Thereafter, the solubility was visually observed and evaluated based on the following evaluation criteria.
Note that, the solubility was visually observed, and it was judged as soluble when it was transparent. Moreover, it was judged as not soluble (insoluble) when it was opaque or insoluble components were observed.
The results are presented in Table 2. • [Evaluation Criteria]
• 0.2% by mass or greater:
Soluble with addition of 0.2 parts by mass • Less than 0.2% by mass:
Insoluble with addition of 0.2 parts by mass
<<n-Hexane>> • 0.5% by mass or greater:
Soluble with addition of 0.5 parts by mass • Less than 0.5% by mass:
Insoluble with addition of 0.5 parts by mass

[2] = Measurement of thermal stability (TG/DTA weight reduction temperature); assay type: physicochemical; details: for Weight reduction temperature 5% / Weight reduction temperature 10% / Weight reduction temperature 20%: TG/DTA, 30° C. to 600° C., 10° C./min, air 200 mL/min; for Weight reduction temperatures higher than those of Z-TETRAOL by: compared with Z-TETRAOL (Comparative Example 7C); for Weight reduction temperatures higher than those of Z-DOL by: compared with perfluoropolyether Z-DOL (Comparative Example 6C)
[3] = in acetonitrile; cited from earlier work
[4] = Vertrel XF [CF3(CHF)2CF2CF3], 25° C., 0.2 parts by mass added to 100 parts by mass, ultrasonic 5 minutes, left 1 day, visual
[5] = n-hexane, 25° C., 0.5 parts by mass added to 100 parts by mass, ultrasonic 5 minutes, left 1 day, visual

Row | Compound | Weight reduction temperature 5% [2] [°C] | Weight reduction temperature 10% [2] [°C] | Weight reduction temperature 20% [2] [°C] | Weight reduction temperatures higher than those of Z-TETRAOL by [2] [°C] | Weight reduction temperatures higher than those of Z-DOL by [2] [°C] | pKa [3] | further results
1 | CCCCCCCCCCCCCCCCCC[n+]1ccn(CCCC)c1.O=S1(=O)[N-]S(=O)(=O)C(F)(F)C(F)(F)C1(F)F [2A, hexafluorocyclopropane-1,3-bis(sulfonyl)imide-1-butyl-3-n-octadecylimidazolium, reference compound] | 347.2 | 367.0 | 387.8 | – | – | – | Solubility, Fluorine-based solvent [1]: less than 0.2% by mass; Solubility, n-Hexane [1]: less than 0.5% by mass
2 | CCCCCCCCCCCCCCCCCCn1ccnc1CCCCCCCCCCCCCCCCC.O=S(=O)(O)C(F)(F)C(F)(F)C(F)(F)C(F)(F)F [4A, nonafluorobutanesulfonic acid-1-octadecyl-2-heptadecyimidazole, reference compound] | 338.2 | 365.9 | 390.1 | – | – | – | Solubility, Fluorine-based solvent [1, 4]: less than 0.2% by mass; Solubility, n-Hexane [1, 5]: less than 0.5% by mass
3 | CCCCCCCCCCCCn1ccnc1CCCCCCCCCCC.O=S(=O)(NS(=O)(=O)C(F)(F)C(F)(F)C(F)(F)C(F)(F)F)C(F)(F)C(F)(F)C(F)(F)C(F)(F)F [Ex. 2A, bis(nonafluorobutanesulfonyl)imide-1-dodecyl-2-undecylimidazolium] | 337.7 | 361.6 | 383.8 | ≥ 100 | ≥ 160 | – | Solubility, Fluorine-based solvent [1, 4]: ≥ 0.2% by mass; Solubility, Fluorine-based solvent ([1]; Vertrel XF [CF3(CHF)2CF2CF3], 25° C., 0.2 parts by mass added to 100 parts by mass, ultrasonic 5 minutes, left 1 day, visual, listed as Example 2A): ≥ 0.2 % by mass; Solubility, n-Hexane [1, 5]: ≥ 0.5% by mass; Solubility, n-Hexane ([1]; n-hexane, 25° C., 0.5 parts by mass added to 100 parts by mass, ultrasonic 5 minutes, left 1 day, visual, listed as Example 2A): ≥ 0.5 % by mass
4 | CCCCCCCCCCCCCCCCCCn1ccnc1CCCCCCCCCCC.O=S(=O)(NS(=O)(=O)C(F)(F)C(F)(F)C(F)(F)C(F)(F)F)C(F)(F)C(F)(F)C(F)(F)C(F)(F)F [Ex. 4A, bis(nonafluorobutanesulfonyl)imide-1-octadecyl-2-undecylimidazolium] | 329.1 | 362.4 | 388.4 | ≥ 90 | ≥ 160 | – | –
5 | O=S(=O)(NS(=O)(=O)C(F)(F)C(F)(F)C(F)(F)C(F)(F)F)C(F)(F)C(F)(F)C(F)(F)C(F)(F)F [bis(nonafluorobutanesulfonyl)imide] | – | – | – | – | – | 0.0 | –
6 | O=S1(=O)NS(=O)(=O)C(F)(F)C(F)(F)C1(F)F [hexafluorocyclopropane-1,3-bis(sulfonyl)imide] | – | – | – | – | – | −0.8 | –
7 | F[B-](F)(F)F.[H+] [tetrafluoroboric acid] | – | – | – | – | – | 1.8 | –
8 | nonafluorobutanesulfonic acid-1-dodecyl-2-undecylimidazolium [Ex. 1A] | 349.4 | 374.1 | 398.9 | ≥ 100 | ≥ 170 | – | –
9 | nonafluorobutanesulfonic acid-1-octadecyl-2-undecylimidazolium [Ex. 3A] | 328.3 | 368.1 | 396.7 | ≥ 80 | ≥ 170 | – | –
10 | nonafluorobutanesulfonic acid-1-octadecylimidazolium [1A, reference compound] | 349.3 | 375.0 | 397.5 | – | – | – | –
11 | nonafluorobutanesulfonic acid-2-heptadecylimidazole [3A, reference compound] | 365.4 | 390.5 | 414.3 | – | – | – | –
12 | pentadecafluorooctanoic acid octadecyl ammonium [5A, reference compound] | 206.9 | 215.8 | 223.4 | – | – | – | Thermal stability (in words) ([2]; summary of Table 3): lacking in thermal stability
13 | perfluorocyclopropane sulfoimide | – | – | – | – | – | −0.8 | –
